Assay results from ChEMBL document CHEMBL1201862, “PubChem BioAssay data set” (2004).
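The compound was tested at five concentrations on cells cultured in 96-well plates, with a 48-hour exposure period. At the GI50, growth is halved.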 Calls of active or inactive are those of the source. Cut-off read from the data, not from the text of the source: active = GI50 up to about 1.1 µM and inactive = higher.

Tests used:
Test in all cases: DTP human tumour cell line panel, 48 h
A549 = system: A549
NCI-H23 = system: NCI-H23
MOLT-4 = system: MOLT-4
LXFL 529 = system: LXFL 529
HT-29 = system: HT-29
RPMI-8226 = system: RPMI-8226
KM12 = system: KM12
UO-31 = system: UO-31
M14 = system: M14
M19-MEL = system: M19-MEL
A498 = system: A498
SF-268 = system: SF-268
NCI-H226 = system: NCI-H226
HOP-18 = system: HOP-18
SN12C = system: SN12C
NCI-H460 = system: NCI-H460
SK-MEL-2 = system: SK-MEL-2
SK-MEL-28 = system: SK-MEL-28
SNB-78 = system: SNB-78
TK-10 = system: TK-10
LOX IMVI = system: LOX IMVI
Malme-3M = system: Malme-3M
COLO 205 = system: COLO 205
HOP-92 = system: HOP-92
OVCAR-4 = system: OVCAR-4
DLD-1 = system: DLD-1
HL-60 = system: HL-60
OVCAR-5 = system: OVCAR-5
HCT-15 = system: HCT-15
K562 = system: K562
EKVX = system: EKVX
HCC 2998 = system: HCC 2998
CCRF-CEM = system: CCRF-CEM
OVCAR-8 = system: OVCAR-8
SNB-75 = system: SNB-75
SK-OV-3 = system: SK-OV-3
HOP-62 = system: HOP-62
SF-539 = system: SF-539
HCT-116 = system: HCT-116
U-251 = system: U-251
KM-20L2 = system: KM-20L2
UACC-62 = system: UACC-62
SW-620 = system: SW-620
RXF 393 = system: RXF 393
IGROV-1 = system: IGROV-1
SK-MEL-5 = system: SK-MEL-5
SR = system: SR
ACHN = system: ACHN
UACC-257 = system: UACC-257
SF-295 = system: SF-295
OVCAR-3 = system: OVCAR-3
DMS-273 = system: DMS-273
XF498 = system: XF498
NCI-H522 = system: NCI-H522
786-0 = system: 786-0
CAKI-1 = system: CAKI-1
SNB-19 = system: SNB-19
DMS-114 = system: DMS-114

Cc1ccc(Sc2ccccc2[N+](=O)[O-])cc1
GI50 (A549): 35 µM (inactive)
GI50 (NCI-H23): 27.4 µM (inactive)
GI50 (MOLT-4): 21.9 µM (inactive)
GI50 (LXFL 529): 29.6 µM (inactive)
GI50 (HT-29): 19.9 µM (inactive)
GI50 (RPMI-8226): 42.4 µM (inactive)
GI50 (KM12): 29.4 µM (inactive)
GI50 (UO-31): 28.8 µM (inactive)
GI50 (M14): 29 µM (inactive)
GI50 (M19-MEL): 32.1 µM (inactive)
GI50 (A498): 47.6 µM (inactive)
GI50 (SF-268): 38.2 µM (inactive)
GI50 (NCI-H226): 21.7 µM (inactive)
GI50 (HOP-18): > 100 µM (inactive)
GI50 (SN12C): 29.8 µM (inactive)
GI50 (NCI-H460): 31.1 µM (inactive)
GI50 (SK-MEL-2): 27.9 µM (inactive)
GI50 (SK-MEL-28): 21.9 µM (inactive)
GI50 (SNB-78): 36.6 µM (inactive)
GI50 (TK-10): 37.8 µM (inactive)
GI50 (LOX IMVI): 27.4 µM (inactive)
GI50 (Malme-3M): 32.3 µM (inactive)
GI50 (COLO 205): 23.4 µM (inactive)
GI50 (HOP-92): 19.4 µM (inactive)
GI50 (OVCAR-4): 27.4 µM (inactive)
GI50 (DLD-1): 32.4 µM (inactive)
GI50 (HL-60): 21 µM (inactive)
GI50 (OVCAR-5): 72.3 µM (inactive)
GI50 (HCT-15): 20 µM
GI50 (K562): 18.1 µM (inactive)
GI50 (EKVX): 28.6 µM (inactive)
GI50 (HCC 2998): 21 µM (inactive)
GI50 (CCRF-CEM): 30.9 µM (inactive)
GI50 (OVCAR-8): 32.2 µM (inactive)
GI50 (SNB-75): 5.71 µM (inactive)
GI50 (SK-OV-3): 34.4 µM (inactive)
GI50 (HOP-62): 32.1 µM (inactive)
GI50 (SF-539): 33 µM (inactive)
GI50 (HCT-116): 27.5 µM (inactive)
GI50 (U-251): 23 µM (inactive)
GI50 (KM-20L2): 33.3 µM (inactive)
GI50 (UACC-62): 37.3 µM (inactive)
GI50 (SW-620): 25.9 µM (inactive)
GI50 (RXF 393): 18 µM (inactive)
GI50 (IGROV-1): 83 µM (inactive)
GI50 (SK-MEL-5): 15.3 µM (inactive)
GI50 (SR): 31.3 µM (inactive)
GI50 (ACHN): 43.7 µM (inactive)
GI50 (UACC-257): 20 µM (inactive)
GI50 (SF-295): 21.6 µM (inactive)
GI50 (OVCAR-3): 31 µM (inactive)
GI50 (DMS-273): 28.6 µM (inactive)

CC(=O)Nc1c(Nc2ccccc2)[nH]c(C)nc1=S
GI50 (A549): > 100 µM (inactive)
GI50 (NCI-H23): > 100 µM (inactive)
GI50 (MOLT-4): > 100 µM (inactive)
GI50 (LXFL 529): > 100 µM (inactive)
GI50 (RPMI-8226): > 100 µM (inactive)
GI50 (KM12): > 100 µM (inactive)
GI50 (UO-31): > 100 µM (inactive)
GI50 (M14): > 100 µM (inactive)
GI50 (XF498): > 100 µM (inactive)
GI50 (SF-268): > 100 µM (inactive)
GI50 (NCI-H522): > 100 µM (inactive)
GI50 (SN12C): > 100 µM (inactive)
GI50 (NCI-H460): > 100 µM (inactive)
GI50 (SK-MEL-2): > 100 µM (inactive)
GI50 (SK-MEL-28): > 100 µM (inactive)
GI50 (SNB-78): > 100 µM (inactive)
GI50 (TK-10): > 100 µM (inactive)
GI50 (LOX IMVI): > 100 µM (inactive)
GI50 (Malme-3M): > 100 µM (inactive)
GI50 (COLO 205): > 100 µM (inactive)
GI50 (HOP-92): > 100 µM (inactive)
GI50 (OVCAR-4): > 100 µM (inactive)
GI50 (DLD-1): > 100 µM (inactive)
GI50 (HL-60): > 100 µM (inactive)
GI50 (786-0): > 100 µM (inactive)
GI50 (OVCAR-5): > 100 µM (inactive)
GI50 (HCT-15): > 100 µM
GI50 (CAKI-1): > 100 µM (inactive)
GI50 (K562): > 100 µM (inactive)
GI50 (EKVX): > 100 µM (inactive)
GI50 (HCC 2998): > 100 µM (inactive)
GI50 (CCRF-CEM): > 100 µM (inactive)
GI50 (OVCAR-8): > 100 µM (inactive)
GI50 (SNB-75): 92.9 µM (inactive)
GI50 (SK-OV-3): > 100 µM (inactive)
GI50 (HOP-62): > 100 µM (inactive)
GI50 (KM-20L2): > 100 µM (inactive)
GI50 (UACC-62): > 100 µM (inactive)
GI50 (SW-620): > 100 µM (inactive)
GI50 (RXF 393): > 100 µM (inactive)
GI50 (SNB-19): > 100 µM (inactive)
GI50 (IGROV-1): > 100 µM (inactive)
GI50 (SK-MEL-5): > 100 µM (inactive)
GI50 (ACHN): > 100 µM (inactive)
GI50 (UACC-257): > 100 µM (inactive)
GI50 (SF-295): > 100 µM (inactive)
GI50 (OVCAR-3): > 100 µM (inactive)
GI50 (DMS-273): > 100 µM (inactive)
GI50 (DMS-114): > 100 µM (inactive)
